Test results: patent publication US20070123473A1, “Glycosylated steroid derivatives with anti-migratory activity” (priority 2003, published 2007)

Assays:
U-373 MG (Glioma) = experiment: Cell migration of cancer cells (phase-contrast videomicroscopy), U-373 MG; type: cell-based, human
Procedure: (§1) Cells of different types of cancer, i.e. U-373 MG (Glioma), Hs578T (breast cancer), PC-3 (prostate cancer) and A549 (lung cancer) were seeded on culture flask 48 hours before the migration experiment. On the test day, cells were treated with or without compounds UBS3270, UBS3285, UBS3327, UBS3328, UBS3501, UBS3585, UBS3597, UBS3976, UBS4066, UBS4095, UBS4104, UBS4109, UBS4209 and UBS4373 in closed Falcon dishes containing a buffered medium at a controlled temperature (37.0±0.1° C.) for 12 or 24 hours. The compounds were administered at 4 concentrations (10^−7 M to 10^−10 M). Migration of the cells was observed by means of a CCD-camera mounted on a phase-contrast microscope. A statistical analyse of the migration, with the non-parametric Mann-Whitney test, was established for 25%-50% of the most motile cells and for the entire cell population for UBS3270, UBS3285, UBS3327, UBS3328, UBS3501, UBS3585, UBS3597, UBS3976, UBS4066, UBS4095, UBS4104, UBS4109, UBS4209 and UBS4373 compounds. The table C below illustrates the anti-migratory effect of the compound according to the invention.

A549 (lung cancer) = experiment: Cell migration of cancer cells (phase-contrast videomicroscopy), A549; type: cell-based, human; conditions: 25% of most motile cells
Procedure: as §1

PC-3 (prostate cancer) = experiment: Cell migration of cancer cells (phase-contrast videomicroscopy), PC-3; type: cell-based, human
Procedure: as §1

P388 lymphoma = experiment: Survival of P388 lymphoma bearing mice (T/C index); type: in vivo, mouse; conditions: 40 mg/kg subcutaneously, T/C of 130% or more = significant prolongation of survival
Procedure: The compounds UBS3328 and UBS3501 were evaluated on the aggressive P388 lymphoma cancer model. When leukemic P388 cells of lymphoblastic origin (Pihl A. UICC Study Group on chemosensitivity testing of human tumors. Problems-applications-future prospects. Int J Cancer. 1986 Jan. 15; 37(1):1-5) are grafted subcutaneously, they develop as very biologically aggressive anaplastic lymphomas markedly metastasizing first into the liver, then in the lungs and occasionally in kidneys. The mice suffering from P388 lymphomas usually die about 2 weeks after the cell injection. The P388 lymphoma was thus used as a model representative of a clinically terminal state of cancer.
The model was performed with 5 mice per group and the compounds UBS3328 and UBS3501 were injected subcutaneously at 40 mg/kg for 4 days, two times per day, for the two first weeks post graft followed by one administration everyday, one times per day for the third week post graft.
The effect of the compounds UBS3328 and UBS3501 on the survival of the P388 cancer bearing mice is evaluated following the analysis of the T/C index. T/C index is calculated by dividing the median day of death in a treated group T by the median day of death in the control group C. T/C values of 130% or more (i.e. a prolongation of mice survival of 30% or more) indicate a significant prolongation of survival.

Hs578T (breast cancer) = experiment: Cell migration of cancer cells (phase-contrast videomicroscopy), Hs578T; type: cell-based, human
Procedure: as §1

[1] = 24 hours, 25% of most motile cells, 10^−9 M
[2] = 12 hours, entire cell population, 10^−9 M

In the case of `COc1ccc(OC)c(C2CC3C4CC=C5CC(O[C@@H]6O[C@H](CO)[C@@H](O)[C@H](O)[C@H]6NC(C)=O)CCC5(C)C4CCC3(C)C2C(C)=O)c1` (some centres unmarked) [UBS4104], the “Max. effects (anti-migratory effect)” value (U-373 MG (Glioma); 12 hours, 50% of most motile cells, 10^−10 M) is reported as −23%/p < 0.001 and the “Max. effects (anti-migratory effect)” value (A549 (lung cancer); 24 hours, 10^−10 M) is reported as −46%/p < 0.001.
With `COc1ccc(OC)c(C2CC3C4CC=C5CC(OC6O[C@H](CO)[C@H](O)[C@H](O)[C@H]6NC(C)=O)CCC5(C)C4CCC3(C)C2C(C)=O)c1` (some centres unmarked) [UBS3597] the “Max. effects (anti-migratory effect)” value (PC-3 (prostate cancer); [1]) was −31%/p < 0.001.
With `COc1ccc(OC)c(C2CC3C4CC=C5CC(OC6O[C@H](CO[C@H]7O[C@H](CO)[C@@H](O)[C@H](O)[C@H]7O)[C@@H](O)[C@H](O)[C@H]6O)CCC5(C)C4CCC3(C)C2C(C)=O)c1` (some centres unmarked) [UBS3328] the “Max. effects (anti-migratory effect)” value (U-373 MG (Glioma); 12 hours, entire cell population, 10^−10 M) was −27%/p < 0.001, the “Max. effects (anti-migratory effect)” value (A549 (lung cancer); 24 hours, 10^−7 M) was −40%/p < 0.001 and the “T/C index (median day of death treated / control)” value (P388 lymphoma) was 135%.
For `COc1ccc(OC)c(C2CC3C4CC=C5CC(OC6O[C@H](CO)[C@@H](O[C@H]7O[C@H](CO)[C@@H](O)[C@H](O)[C@H]7O)[C@H](O)[C@H]6O)CCC5(C)C4CCC3(C)C2C(C)=O)c1` (some centres unmarked) [UBS4095], the “Max. effects (anti-migratory effect)” value (U-373 MG (Glioma); 24 hours, entire cell population, 10^−9 M) was −27%/p < 0.001.
In the case of `COc1ccc(OC)c(C2CC3C4CC=C5CC(OC6O[C@H](CO)[C@@H](O[C@@H]7O[C@H](CO)[C@@H](O)[C@H](O)[C@H]7O)[C@H](O)[C@H]6O)CCC5(C)C4CCC3(C)C2C(C)OC2O[C@H](CO)[C@@H](O[C@@H]3O[C@H](CO)[C@@H](O)[C@H](O)[C@H]3O)[C@H](O)[C@H]2O)c1` (some centres unmarked) [UBS4109], the “Max. effects (anti-migratory effect)” value (PC-3 (prostate cancer); [2]) is reported as −34%/p < 0.001.
With `COc1ccc(OC)c(C2CC3C4CC=C5CC(OC6O[C@H](CO)[C@@H](O)[C@H](O)[C@H]6NC(C)=O)CCC5(C)C4CCC3(C)C2C(C)=O)c1` (some centres unmarked) [UBS3585] the “Max. effects (anti-migratory effect)” value (Hs578T (breast cancer); 24 hours, entire cell population, 10^−7 M) was −27%/p < 0.001.
In the case of `COc1ccc(OC)c(C2CC3C4CC=C5CC(OC6O[C@H](CO)[C@@H](O[C@@H]7O[C@H](CO)[C@H](O)[C@H](O)[C@H]7O)[C@H](O)[C@H]6O)CCC5(C)C4CCC3(C)C2C(C)=O)c1` (some centres unmarked) [UBS3976], the “Max. effects (anti-migratory effect)” value (U-373 MG (Glioma); 24 hours, 25% of most motile cells, 10^−10 M) is reported as −46%/p < 0.001 and the “Max. effects (anti-migratory effect)” value (PC-3 (prostate cancer); 12 hours, 25% of most motile cells, 10^−8 M) is reported as −51%/p < 0.001.
`COc1ccc(OC)c(C2CC3C4CC=C5CC(OC6O[C@@H](C)[C@@H](O)[C@@H](O)[C@@H]6O)CCC5(C)C4CCC3(C)C2C(C)=O)c1` (some centres unmarked) [UBS3501] was tested, and the “Max. effects (anti-migratory effect)” value (U-373 MG (Glioma); 24 hours, 25% of most motile cells, 10^−8 M) was −38%/p = 0.01, the “Max. effects (anti-migratory effect)” value (PC-3 (prostate cancer); 12 hours, 25% of most motile cells, 10^−7 M) was −23%/p < 0.001 and the “T/C index (median day of death treated / control)” value (P388 lymphoma) was 141%.
For `COc1ccc(OC)c(C2CC3C4CC=C5CC(OC6O[C@H](CO)[C@@H](O[C@@H]7O[C@H](CO)[C@H](O)[C@H](O)[C@H]7O)[C@H](O)[C@H]6O)CCC5(C)C4CCC3(C)C2C(C)OC2O[C@H](CO)[C@@H](O[C@@H]3O[C@H](CO)[C@H](O)[C@H](O)[C@H]3O)[C@H](O)[C@H]2O)c1` (some centres unmarked) [UBS4209], the “Max. effects (anti-migratory effect)” value (Hs578T (breast cancer); 24 hours, 25% of most motile cells, 10^−7 M) was −26%/p < 0.001 and the “Max. effects (anti-migratory effect)” value (A549 (lung cancer); 12 hours, 10^−8 M) was −26%/p < 0.001.
With `COc1ccc(OC)c(C2CC3C4CC=C5CC(OC6O[C@@H](C)[C@@H](O)[C@@H](O)[C@@H]6O)CCC5(C)C4CCC3(C)C2C(C)OC2O[C@@H](C)[C@@H](O)[C@@H](O)[C@@H]2O)c1` (some centres unmarked) [UBS4066] the “Max. effects (anti-migratory effect)” value (Hs578T (breast cancer); 12 hours, 25% of most motile cells, 10^−9 M) was −29%/p < 0.001 and the “Max. effects (anti-migratory effect)” value (PC-3 (prostate cancer); [1]) was −45%/p < 0.001.
For `COc1ccc(OC)c(C2CC3C4CC=C5CC(OC6O[C@H](CO)[C@@H](O)[C@H](O)[C@@H]6O)CCC5(C)C4CCC3(C)C2C(C)=O)c1` (some centres unmarked) [UBS3270], the “Max. effects (anti-migratory effect)” value (Hs578T (breast cancer); 24 hours, 50% of most motile cells, 10^−7 M) was −27%/p < 0.001.
In the case of `COc1ccc(OC)c(C2CC3C4CC=C5CC(OC6O[C@H](CO[C@H]7O[C@H](CO)[C@@H](O)[C@H](O)[C@H]7O)[C@@H](O)[C@H](O)[C@H]6O)CCC5(C)C4CCC3(C)C2C(C)OC2O[C@H](CO[C@H]3O[C@H](CO)[C@@H](O)[C@H](O)[C@H]3O)[C@@H](O)[C@H](O)[C@H]2O)c1` (some centres unmarked) [UBS4373], the “Max. effects (anti-migratory effect)” value (U-373 MG (Glioma); [2]) is reported as −24%/p < 0.001.
